Measured values: article PMC10778976, “BAY-3827 and SBI-0206965: Potent AMPK Inhibitors That Paradoxically Increase Thr172 Phosphorylation” (International Journal of Molecular Sciences, 2023)
pIC50: −log10 of the molar value.

Assays:
[1] = biological target: T1, isolated kinase domain of the human α2 isoform (residues 1–310) (Homo sapiens, UniProt P54646); assay: Cell-free kinase assay of isolated α2 kinase domain phosphorylated on Thr172 by CaMKK2; assay type: biochemical; conditions: for pIC50: ATP 200 µM, read-out: IC50, inhibition of human α2 kinase domain
T1 construct: human GST-tagged α2 kinase domain (1–310) was produced as described; GST; made in house
Excerpt: (§1) AMPK assays measured the transfer of radioactivity from labelled ATP to a peptide substrate, which was separated from unreacted ATP by binding to P81 paper. This assay was described previously, except that we used [γ-^33P]ATP rather than [γ-^32P]ATP. The peptide substrate was the AMARA peptide in all experiments other than one, which analyzed allosteric activation by AMP (Figure 2A), when, for technical reasons, the SAMS peptide was used instead. With purified preparations of AMPK, it was assayed in solution, but for assays in cell lysates (Figure 3D and Figure 4D), it was first immunoprecipitated using a mixture of anti-α1 and -α2 antibodies and assayed in resuspended immunoprecipitates. After the initial immunoprecipitation of lysate containing 80 µg of protein, the pellets were washed twice with 1 mL of high salt IP buffer (50 mM Tris-HCL, pH 7.4 at 4 °C, 1 M NaCl, 1 mM EDTA, 1 mM EGTA, 50 mM NaF, 5 mM Na pyrophosphate, 1 mM dithiothreitol, 0.1% (v/v) Triton X-100) and twice with 1 mL of low salt IP buffer (as above but only 150 mM NaCl), followed by a final wash in 1 mL of assay buffer (50 mM Na Hepes, pH7.4, 150 mM NaCl, 1 mM dithiothreitol, 0.02% (v/v) Brij-35). After each wash, the pellet was recovered via centrifugation (16,000× g, 3 min) and then resuspended. The final resuspended pellets from each biological replicate were divided into two aliquots (40 µg lysate protein) to provide technical replicates and assayed as above.
Bacterially expressed heterotrimers and kinase domain constructs (Figure 1B–D) were activated through Thr172 phosphorylation using ATP and GST-tagged CaMKK2, and CaMKK2 was removed via passage through glutathione-Sepharose, as described previously.

[2] = tested on: endogenous AMPK from HEK-293 cells; assay: Activation of dephosphorylated immunoprecipitated AMPK by the LKB1 complex; assay type: biochemical, human; conditions: increasing concentrations; SBI-0206965 effect reversed above 1 µM
Procedure: AMPK was immunoprecipitated from HEK-293 cell lysate (2.5 mg protein) using a mixture of anti-α1 and -α2 antibodies. After extensive washing, it was incubated in a shaking incubator at 30 °C for 20 min in Hepes buffer with 50 mM MgCl2 and sufficient PPM1A to yield about 90% inactivation (total volume of 250 µL). The reaction was terminated by adding 1 mL of IP buffer and, after additional washing in the same buffer, aliquots equivalent to 80 µg of lysate protein were incubated in a shaking incubator at 30 °C for 10 min in Hepes buffer with […] and 5 mM MgCl2, with or without a limiting amount of LKB1:STRADα:MO25α complex (0.5 µg) in the presence or absence of 200 µM AMP or the indicated concentration of BAY-3827 or SBI-0206965 (total volume of 50 µL). The reaction was terminated by adding 1 mL of IP buffer and, after additional washing in the same buffer and a final wash into Hepes buffer, AMPK activity was determined using kinase assays as above.

human α1β1γ1 complex = human α1β1γ1 complex (Homo sapiens, UniProt Q13131); conditions: previous estimate; read-out: IC50, inhibition of α1β1γ1; cited from earlier work
[3] = biological target: T2, “naïve” (unphosphorylated), bacterially expressed human α1β1γ1 complex (Homo sapiens, UniProt Q13131+Q9Y478); assay: Allosteric activation of naïve (unphosphorylated) α1β1γ1 complex by MK-8722 with and without BAY-3827; assay type: biochemical; conditions: BAY-3827 30 nM
T2 construct: (His)6
Excerpt: as §1

[4] = tested on: human AMPK (α2β1γ1 complex); conditions: low ATP concentration (10 µM); read-out: IC50, inhibition of human AMPK (α2β1γ1 complex); cited from earlier work
[5] = set-up: method as in ref 32 = [32]; 32. Lemos C. Schulze A. Overview for BAY-3827, an Inhibitor of PRKAA1, RPS6KA1 Available online: https://www.sgc-ffm.uni-frankfurt.de/chemProbes#!specificprobeoverview/BAY-3827 (accessed on 14 Novembe); conditions: rat hepatocytes; cited from earlier work
[6] = tested on: RSK (RSK1-4, also known as RPS6KA1-4); conditions: selectivity screen against 331 kinases, 1 µM, 10 µM ATP; cited from earlier work

T1 sequence (P54646 1-310): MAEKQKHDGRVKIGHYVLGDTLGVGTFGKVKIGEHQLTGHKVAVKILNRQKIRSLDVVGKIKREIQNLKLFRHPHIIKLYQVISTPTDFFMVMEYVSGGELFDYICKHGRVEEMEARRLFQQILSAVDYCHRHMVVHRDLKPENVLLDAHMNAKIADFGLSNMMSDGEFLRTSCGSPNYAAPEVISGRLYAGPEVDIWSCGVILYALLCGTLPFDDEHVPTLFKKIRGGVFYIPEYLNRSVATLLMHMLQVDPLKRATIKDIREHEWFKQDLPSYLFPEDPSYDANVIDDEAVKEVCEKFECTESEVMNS
T2 sequence (Q13131 whole entry): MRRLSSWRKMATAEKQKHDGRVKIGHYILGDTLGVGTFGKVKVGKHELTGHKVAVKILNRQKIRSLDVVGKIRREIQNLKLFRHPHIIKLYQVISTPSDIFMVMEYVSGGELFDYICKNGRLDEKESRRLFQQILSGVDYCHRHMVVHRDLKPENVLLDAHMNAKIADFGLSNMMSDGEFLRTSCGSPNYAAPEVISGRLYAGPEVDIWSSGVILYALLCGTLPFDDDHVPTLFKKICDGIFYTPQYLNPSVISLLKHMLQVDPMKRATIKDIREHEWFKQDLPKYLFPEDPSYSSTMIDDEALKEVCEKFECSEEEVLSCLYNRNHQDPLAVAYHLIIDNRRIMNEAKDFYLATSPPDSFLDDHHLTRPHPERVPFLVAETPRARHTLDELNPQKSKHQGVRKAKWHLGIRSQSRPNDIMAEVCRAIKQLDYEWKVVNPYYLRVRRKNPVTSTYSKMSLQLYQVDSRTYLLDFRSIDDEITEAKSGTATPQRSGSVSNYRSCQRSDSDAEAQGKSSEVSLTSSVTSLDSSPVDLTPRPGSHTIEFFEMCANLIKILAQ
T2 sequence (Q9Y478 2-270): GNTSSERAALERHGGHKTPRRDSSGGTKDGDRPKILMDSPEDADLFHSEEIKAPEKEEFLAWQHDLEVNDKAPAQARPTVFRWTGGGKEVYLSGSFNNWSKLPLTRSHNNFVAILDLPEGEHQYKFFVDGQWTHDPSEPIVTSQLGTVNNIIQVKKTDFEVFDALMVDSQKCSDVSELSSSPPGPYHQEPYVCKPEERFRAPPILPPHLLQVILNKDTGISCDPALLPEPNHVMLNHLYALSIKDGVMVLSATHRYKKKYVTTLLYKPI
T2 sequence (P54619 whole entry partner): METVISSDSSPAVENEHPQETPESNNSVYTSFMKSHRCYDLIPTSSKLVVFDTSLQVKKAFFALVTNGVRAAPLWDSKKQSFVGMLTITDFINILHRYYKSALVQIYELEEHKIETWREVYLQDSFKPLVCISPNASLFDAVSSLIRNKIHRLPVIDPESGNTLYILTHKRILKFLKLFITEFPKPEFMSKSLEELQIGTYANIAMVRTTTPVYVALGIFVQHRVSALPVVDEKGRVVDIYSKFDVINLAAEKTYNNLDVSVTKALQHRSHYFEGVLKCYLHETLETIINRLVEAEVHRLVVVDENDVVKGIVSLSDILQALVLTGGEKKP
Chain of human α1β1γ1 complex (Q13131 whole entry): as the sequence (Q13131 whole entry) above
Chain of human α1β1γ1 complex (P54619 whole entry, further chain): as the sequence (P54619 whole entry partner) above
Chain of human α1β1γ1 complex (Q9Y478 2-270, further chain): as the sequence (Q9Y478 2-270) above

Row | Apparent Vmax ([1]; BAY-3827 10 nM) | Apparent Vmax ([1]; BAY-3827 30 nM) | Apparent Vmax ([1]; BAY-3827 100 nM) | Apparent Vmax ([1]; BAY-3827 300 nM) | fold increase of EC50 for MK-8722 [3] | basal activity (without MK-8722) ([3]; control without inhibitor 11) | Compound | pIC50 [1] | effect on activation of AMPK by LKB1 [2] | pIC50 (human α1β1γ1 complex) | pIC50 [4] | in vitro clearance (CL) [5] | oral bio-availability (Fmax) [5] | inhibition of all four isoforms of RSK [6]
1 |  |  |  |  |  |  | CNC(=O)c1ccccc1Oc1nc(Nc2cc(OC)c(OC)c(OC)c2)ncc1Br [SBI-0206965] | 6.26 | progressively promoted activation by LKB1 | 6.52 |  |  |  | 
2 | 2.09 µmol/min/mg | 1.78 µmol/min/mg | 1.69 µmol/min/mg | 1.27 µmol/min/mg | 7 fold | 8.7 nmol/min/mg | CCc1ccccc1C(=O)Nc1n[nH]c2c(C)c(F)c(C3C(C#N)=C(C)N(C)C(C)=C3C#N)cc12 [BAY-3827] | 7.05 | little or no effect |  | 8.85 | 55 mL/min/kg | 21% | potently inhibit
